We go through eight compounds from US11001587B2, “Substituted indazoles as phosphatidylinositol kinase inhibitors” (CUROVIR AB, priority 2017, dated 2021).

Structures are written as SMILES.

For one data set, the system named is Enterovirus 6. Description: In vitro CPE assay in mammalian cell culture, EV6. In kind it is cell-based. As to conditions: viral cytopathic effect in mammalian cell culture, read-out: EV6 inhibition capacity (IC50).
A further data set has as its system coxsackie B4 virus. Description: In vitro CPE assay in mammalian cell culture, B4. The class given is cell-based. To be noted: Enterovirus B, viral cytopathic effect in mammalian cell culture, read-out: B4 inhibition capacity (IC50).
A further data set relates to Enterovirus 71. Description: In vitro CPE assay in mammalian cell culture, EV71. To be noted: Enterovirus A, viral cytopathic effect in mammalian cell culture, read-out: EV71 inhibition capacity (IC50). In kind it is cell-based.
A further data set deals with coxsackie B2 virus. The data set can be described thus: In vitro CPE assay in mammalian cell culture, B2. To be noted: viral cytopathic effect in mammalian cell culture, read-out: B2 inhibition capacity (IC50). In kind it is cell-based.
Another data set concerns coxsackie B1 virus. Description: In vitro CPE assay in mammalian cell culture, B1. In kind it is cell-based. As to conditions: viral cytopathic effect in mammalian cell culture, read-out: B1 inhibition capacity (IC50).
Another data set deals with coxsackie B3 virus. Description: In vitro CPE assay in mammalian cell culture, B3. As to conditions: Enterovirus B, viral cytopathic effect in mammalian cell culture, read-out: B3 inhibition capacity (IC50). The class given is cell-based.
A further data set has as its system coxsackie B5 virus. The data set can be described thus: In vitro CPE assay in mammalian cell culture, B5. In kind it is cell-based. As to conditions: viral cytopathic effect in mammalian cell culture, read-out: B5 inhibition capacity (IC50).
The next data set concerns Enterovirus 30. The data set can be described thus: In vitro CPE assay in mammalian cell culture, EV30. In kind it is cell-based. To be noted: viral cytopathic effect in mammalian cell culture, read-out: EV30 inhibition capacity (IC50).
A further data set concerns polio virus Sabin 1. The data set can be described thus: organism not typed. The class given is cell-based. As to conditions: read-out: Polio 1 inhibition capacity (IC50).
The test system of the next data set is Enterovirus 68. The data set can be described thus: In vitro CPE assay in mammalian cell culture, EV68. In kind it is cell-based. As to conditions: Enterovirus D, viral cytopathic effect in mammalian cell culture, read-out: EV68 inhibition capacity (IC50).
The nature of data set [1]: Metabolic stability in human liver microsomes. The class given is in vitro ADME. How it is done: (§1) Metabolic stability in human and rat liver microsomesMetabolic stability was studied using human (HLM) or rat (RLM) liver microsomes. The final composition of the assay included 5 μM of test item and reference item (Diclofenac or Imipramine) prepared from DMSO stock, so that the final concentration of DMSO was 0.1%, 0.125 mg/mL microsomal protein and cofactors (5.0 mM G-6-P, 0.06 U/mL G-6-PDH, 2.0 mM MgCl2, 1.0 mM NADP^+). Test and reference items were incubated with human or rat liver microsomes with or without cofactors. The reaction mixture (100 μL) was removed at specified time periods and the reaction was stopped by addition of stop solution. The samples were extracted in presence of internal standard and were analyzed using LC-MS/MS. The percent of the test/reference item remaining after a specified incubation period was calculated with respect to the peak area ratio at time 0 min.

Another data set is described as follows: in vitro. The class given is in vitro ADME. As to conditions: plasma, pH 7.4. How it is done:
Plasma protein binding study was performed by using a Rapid Equilibrium Dialysis (RED) device containing dialysis membrane with a molecular weight cut-off of 8,000 Daltons. Each dialysis insert contains two chambers. The red chamber was for the plasma while the white chamber was for the buffer. The human and rat plasma (pH adjusted to 7.40) samples of test items and reference items (Warfarin and Propranolol) were prepared at a required test concentration of 5 μM using 5 mM DMSO stocks (final DMSO concentration was 0.1%). 300 μL of plasma sample was added into the sample chamber. 500 μL of buffer was added into the buffer chamber. After sealing the RED device with an adhesive film, incubation was done at 37° C. with shaking at 300 rpm for 4 h. Following incubation, an aliquot of 50 μL was removed from each well (plasma and buffer side) and diluted with equal volume of opposite matrix to nullify the matrix effect. The specimens were subjected to sample extraction in presence of internal standard by liquid-liquid extraction/protein precipitation method. After extraction, the samples were transferred into labeled auto sampler vials and submitted to LC-MS/MS analysis.

Data set [2] can be described thus: Metabolic stability in rat liver microsomes. The class given is in vitro ADME. As to conditions: 5 μM test item, 0.125 mg/mL microsomal protein. How it is done:
as §1

A further data set is described as follows: in vivo. On the set-up: species or system Sprague Dawley rats. As to conditions: male, Sprague Dawley, rat, po, 50 mg/kg. How it is done:
Overnight fasted animals were administered with the test compounds in recommended vehicle 0.4% (v/v) Tween 80+2% (v/v) Glycerol and 15% w/v HPBCD by oral route with a dose of 50 mg/kg body weight at dose volume of 10 mL/kg bw. Under mild isoflurane anesthesia, blood samples were collected into pre-labeled tubes containing anticoagulant (K2EDTA—2 mg/mL blood) during the next 24 hours post dose. Collected blood samples were centrifuged at 4000 rpm, 4° C. for 10 minutes and plasma was separated and stored at −80° C. until analysis.

Consider `Cc1ccc(CNc2cc(C)nc3c(-c4ccc5c(c4)c(C)nn5C)c(C)nn23)cn1` [Example 9, 3-(1,3-dimethyl-1H-indazol-5-yl)-2,5-dimethyl-N-((6-methylpyridin-3-yl)methyl)pyrazolo[1,5-a]pyrimidin-7-amine], for which the IC50 was less than 1 µM in the data set with Enterovirus 6; less than 0.1 µM in the data set with coxsackie B4 virus; less than 0.1 µM in the data set on Enterovirus 71; less than 0.01 µM in the data set with coxsackie B2 virus; less than 0.01 µM with coxsackie B1 virus; less than 0.01 µM in the data set on coxsackie B3 virus. The half-inhibitory concentration (IC50) in the data set on coxsackie B5 virus, in the data set with Enterovirus 30, with polio virus Sabin 1 and with Enterovirus 68 was less than 0.1 µM in each case.

For the compound `Cc1ccc(CNc2nc(C)nc3c(-c4ccc5c(c4)c(C)nn5C)c(C)nn23)cn1` [Example 22, 8-(1,3-dimethyl-1H-indazol-5-yl)-2,7-dimethyl-N-((6-methylpyridin-3-yl)methyl)pyrazolo[1,5-a][1,3,5]triazin-4-amine], the IC50 is less than 1 µM with Enterovirus 6; less than 1 µM with coxsackie B4 virus; less than 0.01 µM with Enterovirus 71; less than 0.01 µM with coxsackie B2 virus; less than 0.01 µM in the data set on coxsackie B1 virus; less than 0.001 µM with coxsackie B3 virus. Moreover, the IC50 with coxsackie B5 virus was less than 0.1 µM; in the data set on Enterovirus 30 it was less than 0.1 µM; with polio virus Sabin 1, less than 0.001 µM; in the data set with Enterovirus 68 it was less than 0.1 µM.

For `Cc1cc(NCc2ccncc2)c2nc(C)c(-c3ccc4c(c3)c(C)nn4C)n2n1` [Example 1, 3-(1,3-dimethyl-1H-indazol-5-yl)-2,6-dimethyl-N-(pyridin-4-ylmethyl)imidazo[1,2-b]pyridazin-8-amine], in [1] (human liver microsomes, 5 μM test item, 0.125 mg/mL microsomal protein), the “Remaining after 1 h, HLM” value is 90%. This compound showed a half-life at 5 μM in [1] (human, microsomes) of more than 2 h. Besides, the half-maximal inhibitory concentration (IC50) was less than 0.01 µM in the data set on Enterovirus 6; less than 0.01 µM in the data set with Enterovirus 71; less than 0.01 µM in the data set on coxsackie B2 virus; less than 0.01 µM in the data set on coxsackie B1 virus; less than 0.001 µM in the data set with coxsackie B3 virus; less than 0.0001 µM in the data set on coxsackie B5 virus. For the same compound, the 50% inhibitory concentration (IC50) is less than 0.0001 µM with Enterovirus 30, less than 0.001 µM with polio virus Sabin 1 and less than 0.1 µM in the data set with Enterovirus 68. In addition, the fraction unbound at 4 h, 5 μM was 0.016 in the data set “in vitro” (human) and 0.03 in “in vitro” (rat). Further, the “Remaining after 1 h, RLM” value in data set [2] stood at 88%. In the data set “in vivo”, the area under the curve AUC(0-inf) is 31.8 ± 8 µg·h/mL. In “in vivo”, the AUC(0-t) was 22.2 ± 2.1 µg·h/mL. This compound also returned an AUCextrap in the data set “in vivo” of 27.8 ± 14.8%. The highest level in the data set “in vivo” (Cmax) was 3.9 ± 0.4 µg/mL. In “in vivo”, this compound displayed a mean residence time MRT last of 3.4 ± 0.2 h. Also, the Tmax in “in vivo” stood at 1.7 ± 0.6 h. Moreover, the half-life in “in vivo” was 4.3 ± 2 h.

Take `COc1ccc(CNc2cc(C)nc3c(-c4ccc5c(c4)c(C)nn5C)c(C)nn23)cn1` [Example 14, 3-(1,3-dimethyl-1H-indazol-5-yl)-N-((6-methoxypyridin-3-yl)methyl)-2,5-dimethylpyrazolo[1,5-a]pyrimidin-7-amine]: the IC50 with Enterovirus 6 is less than 1 µM; in the data set with coxsackie B4 virus, less than 0.01 µM; in the data set with Enterovirus 71 it was less than 1 µM; in the data set with coxsackie B2 virus it was less than 1 µM; with coxsackie B1 virus it was less than 1 µM; in the data set on coxsackie B3 virus, less than 0.01 µM. Further, the IC50 with coxsackie B5 virus is less than 1 µM; in the data set with Enterovirus 30, less than 0.1 µM; in the data set with polio virus Sabin 1 it was less than 0.1 µM; in the data set on Enterovirus 68, less than 1 µM.

Consider `Cc1cc(NCc2ccc(Cl)cc2)n2nc(C)c(-c3ccc4c(c3)c(C)nn4C)c2n1` [Example 11, N-(4-chlorobenzyl)-3-(1,3-dimethyl-1H-indazol-5-yl)-2,5-dimethylpyrazolo[1,5-a]pyrimidin-7-amine], for which the IC50 was less than 1 µM with Enterovirus 6; less than 0.1 µM in the data set with coxsackie B4 virus; less than 1 µM with Enterovirus 71; less than 1 µM in the data set with coxsackie B2 virus; less than 1 µM in the data set with coxsackie B1 virus; less than 1 µM with coxsackie B3 virus. Moreover, the IC50 in the data set on coxsackie B5 virus, with Enterovirus 30, in the data set with polio virus Sabin 1 and in the data set on Enterovirus 68 was less than 1 µM throughout.

Turning to `Cc1cc(NCc2ccc(NS(C)(=O)=O)cc2)n2nc(C)c(-c3ccc4c(c3)c(C)nn4C)c2n1` [Example 16, N-(4-(((3-(1,3-dimethyl-1H-indazol-5-yl)-2,5-dimethylpyrazolo[1,5-a]pyrimidin-7-yl)amino)meth-yl)phenyl)methane-sulfonamide], the IC50 is less than 1 µM in the data set with Enterovirus 6; less than 0.1 µM in the data set on coxsackie B4 virus; less than 1 µM with Enterovirus 71; less than 1 µM in the data set with coxsackie B2 virus; less than 1 µM in the data set with coxsackie B1 virus; less than 0.1 µM with coxsackie B3 virus. The 50% inhibitory concentration (IC50) in the data set on coxsackie B5 virus, in the data set with Enterovirus 30, in the data set with polio virus Sabin 1 and in the data set with Enterovirus 68 was less than 1 µM throughout.

In the case of `Cc1cc(NCc2cccs2)n2nc(C)c(-c3ccc4c(c3)c(C)nn4C)c2n1` [Example 15, 3-(1,3-dimethyl-1H-indazol-5-yl)-2,5-dimethyl-N-(thiophen-2-ylmethyl)pyrazolo[1,5-a]pyrimidin-7-amine], the half-maximal inhibitory concentration (IC50) in the data set with Enterovirus 6, in the data set on coxsackie B4 virus, in the data set on Enterovirus 71, with coxsackie B2 virus, in the data set with coxsackie B1 virus and in the data set with coxsackie B3 virus was less than 0.1 µM in each case. For the same compound, the IC50 with coxsackie B5 virus, with Enterovirus 30, in the data set with polio virus Sabin 1 and with Enterovirus 68 was less than 0.1 µM in each case.

In the case of `Cc1cc(NCc2ccc(S(N)(=O)=O)cc2)n2nc(C)c(-c3ccc4c(c3)c(C)nn4C)c2n1` [Example 13, 4-(((3-(1,3-dimethyl-1H-indazol-5-yl)-2,5-dimethylpyrazolo[1,5-a]pyrimidin-7-yl)amino)methyl)benzene-sulfonamide], the half-maximal inhibitory concentration (IC50) with Enterovirus 6 is less than 1 µM; with coxsackie B4 virus, less than 0.1 µM; in the data set with Enterovirus 71 it was less than 0.1 µM; in the data set on coxsackie B2 virus, less than 1 µM; in the data set with coxsackie B1 virus it was less than 1 µM; with coxsackie B3 virus it was less than 0.1 µM. The IC50 in the data set on coxsackie B5 virus is less than 0.1 µM; in the data set with Enterovirus 30, less than 0.1 µM; with polio virus Sabin 1 it was less than 0.1 µM; in the data set on Enterovirus 68 it was less than 1 µM. In the data set “in vivo”, the total exposure AUC(0-inf) came to 76.1 ± 26.8 µg·h/mL. For the same compound, the area under the curve AUC(0-t) in “in vivo” worked out at 62.1 ± 10.9 µg·h/mL. For the same compound, the AUCextrap in “in vivo” amounted to 14.5 ± 17.1%. The compound also came in with a peak concentration (Cmax) in “in vivo” of 5.9 ± 0.9 µg/mL. The compound also showed a mean residence time (MRT last) in “in vivo” of 7.5 ± 1.4 h. In addition, the Tmax in the data set “in vivo” came to 2 h. The half-life in “in vivo” is 8.2 ± 5.4 h.
